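Compound exposure: 48 hours, 5 concentrations, 96-well plates. Abbreviation: GI50, concentration required for 50% inhibition of growth.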 Calls of active or inactive are those of the source. Rule as the data show it: active = GI50 up to about 1.1 µM and inactive = higher.
Assays:
Experiment in all cases: inhibition of tumour cell growth, NCI panel, 48 h
[1] = test system: 786-0
[2] = test system: COLO 205
[3] = test system: DU-145
[4] = test system: HCT-15
[5] = test system: IGROV-1
[6] = test system: M14
[7] = test system: MDA-MB-231
[8] = test system: MDA-MB-435
[9] = test system: MDA-N
[10] = test system: NCI-H226
[11] = test system: NCI/ADR-RES
[12] = test system: OVCAR-3
[13] = test system: OVCAR-5
[14] = test system: RPMI-8226
[15] = test system: SF-295
[16] = test system: SK-MEL-5
[17] = test system: SR
[18] = test system: SW-620
[19] = test system: UACC-62
[20] = test system: UO-31

| SMILES | GI50 [1] | GI50 [2] | GI50 [3] | GI50 [4] [µM] | GI50 [5] | GI50 [6] | GI50 [7] | GI50 [8] | GI50 [9] | GI50 [10] | GI50 [11] | GI50 [12] | GI50 [13] | GI50 [14] | GI50 [15] | GI50 [16] | GI50 [17] | GI50 [18] | GI50 [19] | GI50 [20] |
| --- | --- | --- | --- | --- | --- | --- | --- | --- | --- | --- | --- | --- | --- | --- | --- | --- | --- | --- | --- | --- |
| S=C(NCc1ccccc1)N/N=C/c1ccccn1 | 1.59 µM (inactive) | 0.104 µM (active) | 3.08 µM (inactive) | 1.26 | 1.58 µM (inactive) | 0.5 µM (active) | 1.24 µM (inactive) | 5.69 µM (inactive) | 8.53 µM (inactive) | 2.01 µM (inactive) | 1.88 µM (inactive) | 0.222 µM (active) | > 21.8 µM (inactive) | 0.118 µM (active) | 1.86 µM (inactive) | 3.52 µM (inactive) | 0.29 µM (active) | 1.16 µM (inactive) | 3.27 µM (inactive) | 1.25 µM (inactive) |
| CC(=O)CCNc1ccc(-c2cc(-c3ccc(N(C)C)cc3)nc3ccc4ccccc4c23)cc1 | 22.4 µM (inactive) | 26.9 µM (inactive) | > 57.5 µM (inactive) | 49.7 | 14.5 µM (inactive) | 32.4 µM (inactive) | > 75 µM (inactive) | > 60.7 µM (inactive) | > 100 µM (inactive) | > 41.5 µM (inactive) | 97.9 µM (inactive) | 44.8 µM (inactive) | > 100 µM (inactive) | 11.7 µM (inactive) | > 59.4 µM (inactive) | 59.8 µM (inactive) | 7.11 µM (inactive) | > 100 µM (inactive) | > 60.8 µM (inactive) | 23.5 µM (inactive) |
| Cc1ccc2[nH]c(=O)c(-c3cnc(O)nn3)c(O)c2c1 | > 100 µM (inactive) | > 100 µM (inactive) | > 100 µM (inactive) | > 100 | > 100 µM (inactive) | > 100 µM (inactive) | > 100 µM (inactive) | 60.3 µM (inactive) | 17.7 µM (inactive) | > 100 µM (inactive) | > 100 µM (inactive) | 58.1 µM (inactive) | > 100 µM (inactive) | 6.24 µM (inactive) | 60.7 µM (inactive) | 11.8 µM (inactive) | > 100 µM (inactive) | > 100 µM (inactive) | 26.4 µM (inactive) | 16.6 µM (inactive) |
| CCC(=O)OCc1ccc2oc(=O)c(C(=O)Oc3cncc(Cl)c3)cc2c1 | 74.1 µM (inactive) | 71.6 µM (inactive) | > 100 µM (inactive) | 44 | > 100 µM (inactive) | > 100 µM (inactive) | > 100 µM (inactive) | 70 µM (inactive) | > 100 µM (inactive) | > 100 µM (inactive) | > 100 µM (inactive) | > 100 µM (inactive) | > 100 µM (inactive) | > 100 µM (inactive) | > 100 µM (inactive) | > 100 µM (inactive) | 20.8 µM (inactive) | > 100 µM (inactive) | 52.1 µM (inactive) | 83.8 µM (inactive) |
| O=C(O)c1cc(-c2ccncc2)nc2ccccc12 | > 100 µM (inactive) | > 100 µM (inactive) | > 100 µM (inactive) | > 100 | > 100 µM (inactive) | > 100 µM (inactive) | > 100 µM (inactive) | > 100 µM (inactive) | > 100 µM (inactive) | > 100 µM (inactive) | > 100 µM (inactive) | > 100 µM (inactive) | > 100 µM (inactive) | > 100 µM (inactive) | > 100 µM (inactive) | > 100 µM (inactive) | > 100 µM (inactive) | > 100 µM (inactive) | > 100 µM (inactive) | > 100 µM (inactive) |
| CN(C)CCc1c2c(nc3ccccc13)C(=O)c1cccnc1C2=O | 0.121 µM (active) | 1.97 µM (inactive) | 0.126 µM (active) | 0.0348 | 0.542 µM (active) | 0.102 µM (active) | 0.385 µM (active) | 0.331 µM (active) | 0.352 µM (active) | 0.0902 µM (active) | 0.119 µM (active) | 0.0513 µM (active) | 1.18 µM (inactive) | 0.488 µM (active) | 0.203 µM (active) | 0.177 µM (active) | 0.0456 µM (active) | 0.0873 µM (active) | 0.175 µM (active) | 0.197 µM (active) |
| O=C(Cc1cc(=O)oc2cc(O)ccc12)N/N=C/c1ccc(N(CCCl)CCCl)cc1 | 18.8 µM (inactive) | 29.2 µM (inactive) | 19.6 µM (inactive) | > 100 | 18.8 µM (inactive) | 19.5 µM (inactive) | 18.5 µM (inactive) | 19.8 µM (inactive) | 23.4 µM (inactive) | 17.7 µM (inactive) | 84.1 µM (inactive) | 18.2 µM (inactive) | 25.6 µM (inactive) | 16.4 µM (inactive) | 18.1 µM (inactive) | 14.6 µM (inactive) | 14.2 µM (inactive) | 34.1 µM (inactive) | 6.19 µM (inactive) | 22.2 µM (inactive) |
| O=C(/C=C/c1ccccc1)Oc1ccc(C(=O)/C=C/c2ccccc2)cc1 | 6.53 µM (inactive) | 13.9 µM (inactive) | 10.3 µM (inactive) | 4.29 | 11.5 µM (inactive) | 14.1 µM (inactive) | 13.2 µM (inactive) | 4.65 µM (inactive) | 6.3 µM (inactive) | 34.4 µM (inactive) | 12.1 µM (inactive) | 10.3 µM (inactive) | 13.7 µM (inactive) | 3.25 µM (inactive) | 12.9 µM (inactive) | 16.9 µM (inactive) | 2.1 µM (inactive) | 8.75 µM (inactive) | 12.9 µM (inactive) | 10.4 µM (inactive) |
| Cc1sc2nc(-c3ccc(Cl)c([N+](=O)[O-])c3)c(/C=N/NC(=N)N)n2c1C | 0.684 µM (active) | 0.282 µM (active) | 1.93 µM (inactive) | 1.37 | 1.09 µM (active) | 1.53 µM (inactive) | 0.615 µM (active) | 1.51 µM (inactive) | 0.893 µM (active) | 1.61 µM (inactive) | 2.04 µM (inactive) | 1.69 µM (inactive) | 1.58 µM (inactive) | 1.35 µM (inactive) | 1.76 µM (inactive) | 1.53 µM (inactive) | 0.229 µM (active) | 0.247 µM (active) | 1.79 µM (inactive) | 1.65 µM (inactive) |
| C=CCC(CNC(=O)OCc1ccccc1)OC(=O)OCc1ccccc1 (centres undefined) | 91.2 µM (inactive) | 39.1 µM (inactive) | > 100 µM (inactive) | 74.3 | > 100 µM (inactive) | > 100 µM (inactive) | > 100 µM (inactive) | 57 µM (inactive) | 47.1 µM (inactive) | > 100 µM (inactive) | > 100 µM (inactive) | 63.2 µM (inactive) | > 100 µM (inactive) | 26.1 µM (inactive) | 55.5 µM (inactive) | 22 µM (inactive) | 21.8 µM (inactive) | > 100 µM (inactive) | 93.5 µM (inactive) | > 100 µM (inactive) |
| Clc1ccc(/C=C/c2nc(-c3ccccc3)cn3c2nc2ccccc23)cc1Cl | 37.5 µM (inactive) | > 100 µM (inactive) | > 100 µM (inactive) | 34.3 | 36.1 µM (inactive) | 56.4 µM (inactive) | > 100 µM (inactive) | 35.3 µM (inactive) | 60 µM (inactive) | > 100 µM (inactive) | 55.6 µM (inactive) | 31.9 µM (inactive) | > 100 µM (inactive) | 41.9 µM (inactive) |  | 50.2 µM (inactive) | 33.7 µM (inactive) | 41.6 µM (inactive) | > 100 µM (inactive) | 58.1 µM (inactive) |
